Common to all, as to format: functional, cell-based
For assay [1], the system named is A549. Description: Cytotoxicity against human A549 cells after 48 hrs by MTT assay. The settings on record: A549, 48 h. (Tetrazolium dyes change colour on reduction, which living cells bring about.)
Assay [2] concerns SMMC-7721. Put plainly: Cytotoxicity against human SMMC7721 cells after 48 hrs by MTT assay. The following applies: SMMC-7721, 48 h.
The test system of assay [3] is MCF7. Put plainly: Cytotoxicity against human MCF7 cells after 48 hrs by MTT assay. The following applies: MCF7, 48 h.
The test system of assay [4] is SW480. Description: Cytotoxicity against human SW480 cells after 48 hrs by MTT assay. The settings on record: SW480, 48 h.
The subject of assay [5] is HL-60. Put plainly: Cytotoxicity against human HL60 cells after 48 hrs by MTT assay. The settings on record: HL-60, 48 h.

As a reminder, the IC50 is the concentration needed to halve the response being measured. Read a high IC50 as weaker potency. Regarding `Cc1n(Cc2cc3ccccc3o2)cc[n+]1CC(=O)c1ccc(O)cc1`, the IC50 in assay [1], in assay [2], in assay [3], in assay [4] and in assay [5] was above 40 µM each time.
On to `Cc1n(Cc2cc3ccccc3o2)cc[n+]1CC(=O)c1ccc(Br)cc1`, for which the IC50 in assay [1], in assay [2], in assay [3], in assay [4] and in assay [5] was above 40 µM each time.
In the case of `Cc1n(Cc2cc3ccccc3o2)cc[n+]1CC(=O)c1ccc2ccccc2c1`, the IC50 was found to be 4.97 µM in assay [1]; 3.5 µM in assay [2]; 1.09 µM in assay [3]; 1.03 µM in assay [4]; 1.04 µM in assay [5].
Consider `Cc1n(Cc2cc3ccccc3o2)cc[n+]1C(C(=O)c1ccccc1)c1ccccc1` (stereo not given), for which the IC50 in assay [1] was 14.8 µM; in assay [2], 11.3 µM; in assay [3], 6.79 µM; in assay [4], 9.96 µM; in assay [5], 4.44 µM.
With `Cc1n(Cc2cc3ccccc3o2)cc[n+]1Cc1ccccc1Br`, the IC50 in assay [1] is 2.96 µM; in assay [2] it was 10.2 µM; in assay [3], 2.24 µM; in assay [4], 3.89 µM; in assay [5], 1.28 µM.
On to `C=CC[n+]1ccn(Cc2cc3ccccc3o2)c1C`, for which the IC50 in assay [1], in assay [2], in assay [3], in assay [4] and in assay [5] was above 40 µM each time.
In the case of `CCc1n(Cc2cc3ccccc3o2)cc[n+]1CC(=O)c1ccccc1`, the IC50 in assay [1], in assay [2], in assay [3], in assay [4] and in assay [5] was above 40 µM throughout.
Turning to `CCc1n(Cc2cc3ccccc3o2)cc[n+]1CC(=O)c1ccc(OC)cc1`, the IC50 in assay [1] came to 1.13 µM; in assay [2] it was 8.43 µM; in assay [3] it was 3.05 µM; in assay [4] it was 1.02 µM; in assay [5] it was 0.4 µM.
In the same order, the values of `CCc1n(Cc2cc3ccccc3o2)cc[n+]1CC(=O)c1ccc(O)cc1` are above 40 µM, above 40 µM, above 40 µM, above 40 µM and above 40 µM.
With `CCc1n(Cc2cc3ccccc3o2)cc[n+]1CC(=O)c1ccc(Br)cc1`, the IC50 in assay [1] came out at 25.7 µM; in assay [2], 7.51 µM; in assay [3], 4.47 µM; in assay [4], 1.34 µM; in assay [5], 1.87 µM.
As to `CCc1n(Cc2cc3ccccc3o2)cc[n+]1CC(=O)c1ccc2ccccc2c1`, the IC50 in assay [1] turned out to be 7.44 µM; in assay [2], 4.26 µM; in assay [3] it was 2.59 µM; in assay [4], 1.69 µM; in assay [5], 1.45 µM.
With `CCc1n(Cc2cc3ccccc3o2)cc[n+]1C(C(=O)c1ccccc1)c1ccccc1` (stereo not given), the IC50 in assay [1] is 10.3 µM; in assay [2], 6.16 µM; in assay [3] it was 3.3 µM; in assay [4] it was 7.15 µM; in assay [5], 2.25 µM.
With `O=C(C[n+]1ccn(Cc2cc3ccccc3o2)c1)c1ccccc1`, the IC50 in assay [1], in assay [2], in assay [3], in assay [4] and in assay [5] was above 40 µM throughout.
As for `COc1ccc(C(=O)C[n+]2ccn(Cc3cc4ccccc4o3)c2)cc1`, the IC50 in assay [1], in assay [2], in assay [3], in assay [4] and in assay [5] was above 40 µM throughout.
For `O=C(C[n+]1ccn(Cc2cc3ccccc3o2)c1)c1ccc(O)cc1`, the IC50 in assay [1], in assay [2], in assay [3], in assay [4] and in assay [5] was above 40 µM throughout.
As to `O=C(C[n+]1ccn(Cc2cc3ccccc3o2)c1)c1ccc(Br)cc1`, the IC50 was 12.2 µM in assay [1]; 14.3 µM in assay [2]; 18 µM in assay [3]; above 40 µM in assay [4]; 10.3 µM in assay [5].
Consider `O=C(C[n+]1ccn(Cc2cc3ccccc3o2)c1)c1ccc2ccccc2c1`, for which the IC50 in assay [1] was found to be 9.95 µM; in assay [2], 8.08 µM; in assay [3] it was 12.7 µM; in assay [4] it was 17.1 µM; in assay [5], 6.27 µM.
On to `Brc1ccccc1C[n+]1ccn(Cc2cc3ccccc3o2)c1`, for which the IC50 in assay [1], in assay [2], in assay [3], in assay [4] and in assay [5] was above 40 µM in each case.
As for `C=CC[n+]1ccn(Cc2cc3ccccc3o2)c1`, the IC50 in assay [1], in assay [2], in assay [3], in assay [4] and in assay [5] was above 40 µM in each case.
As for `CCCC[n+]1ccn(Cc2cc3ccccc3o2)c1`, the IC50 in assay [1], in assay [2], in assay [3], in assay [4] and in assay [5] was above 40 µM throughout.
On to `O=C(C[n+]1cn(Cc2cc3ccccc3o2)c2ccccc21)c1ccccc1`, for which the IC50 in assay [1], in assay [2], in assay [3], in assay [4] and in assay [5] was above 40 µM each time.
For `COc1ccc(C(=O)C[n+]2cn(Cc3cc4ccccc4o3)c3ccccc32)cc1`, the IC50 in assay [1] was determined as 7.18 µM; in assay [2], 13.6 µM; in assay [3] it was 14.6 µM; in assay [4] it was 23.1 µM; in assay [5], 3.91 µM.
The corresponding values for `O=C(C[n+]1cn(Cc2cc3ccccc3o2)c2ccccc21)c1ccc(O)cc1` are above 40 µM, above 40 µM, above 40 µM, above 40 µM and above 40 µM.
Turning to `O=C(C[n+]1cn(Cc2cc3ccccc3o2)c2ccccc21)c1ccc(Br)cc1`, the IC50 is 2.54 µM in assay [1]; 3.58 µM in assay [2]; 2.46 µM in assay [3]; 4.2 µM in assay [4]; 1.69 µM in assay [5].
The corresponding values for `O=C(C[n+]1cn(Cc2cc3ccccc3o2)c2ccccc21)c1ccc2ccccc2c1` are 6.73 µM, 6.44 µM, 3.72 µM, 17.1 µM and 3.62 µM.
Turning to `O=C(c1ccccc1)C(c1ccccc1)[n+]1cn(Cc2cc3ccccc3o2)c2ccccc21` (stereo not given), the IC50 was found to be 12.6 µM in assay [1]; 14.8 µM in assay [2]; 9.83 µM in assay [3]; 9.75 µM in assay [4]; 6.77 µM in assay [5].
The corresponding values for `Brc1ccccc1C[n+]1cn(Cc2cc3ccccc3o2)c2ccccc21` are 2.63 µM, 6.83 µM, 7.48 µM, 14.7 µM and 2.48 µM.
The corresponding values for `CCCC[n+]1cn(Cc2cc3ccccc3o2)c2ccccc21` are above 40 µM, above 40 µM, above 40 µM, above 40 µM and above 40 µM.
On to `Cc1n(Cc2cc3ccccc3o2)cc[n+]1CC(=O)c1ccccc1`, for which the IC50 in assay [1], in assay [2], in assay [3], in assay [4] and in assay [5] was above 40 µM in each case.
Regarding `COc1ccc(C(=O)C[n+]2ccn(Cc3cc4ccccc4o3)c2C)cc1`, the IC50 turned out to be 0.37 µM in assay [1]; 11.6 µM in assay [2]; 1.44 µM in assay [3]; 0.28 µM in assay [4]; 0.78 µM in assay [5].
On to `c1ccc2oc(Cn3ccnc3)cc2c1`, for which the IC50 in assay [1], in assay [2], in assay [3], in assay [4] and in assay [5] was above 40 µM throughout.
For `c1ccc2oc(Cn3cnc4ccccc43)cc2c1`, the IC50 in assay [1], in assay [2], in assay [3], in assay [4] and in assay [5] was above 40 µM each time.
On to `Cc1nccn1Cc1cc2ccccc2o1`, for which the IC50 in assay [1], in assay [2], in assay [3], in assay [4] and in assay [5] was above 40 µM throughout.
Turning to `CCc1nccn1Cc1cc2ccccc2o1`, the IC50 in assay [1], in assay [2], in assay [3], in assay [4] and in assay [5] was above 40 µM throughout.

(Values after ChEMBL document CHEMBL2429764, “Synthesis and cytotoxic activity of novel hybrid compounds between 2-alkylbenzofuran and imidazole” (Med Chem Res, 2013).)
